One experiment deals with BAP01-B2-230 line. As to the kind of experiment: Cryopreservation success rate after dormancy induction in sugar-supplemented medium. The class given is in vivo, Lemna minor. Here is the method:
(§1) Lemna minor duckweed plants were cultured on Schenk and Hildebrandt media with 20 mg/ml sucrose at an aerial temperature of between 21° C. and 30° C. and light levels ranging from […] for 1 day up to 1 year. Three frond colonies (each frond colony comprised one or more daughter fronds attached to the mother frond) were aseptically transferred into a 2.0-mL cryovial containing a 900 μL solution of Schenk and Hildebrandt media, supplemented with 15 mg/ml of each D-trehalose dihydrate, sucrose, D-sorbitol, D-raffinose pentahydrate, D-glucose, and D-mannitol for the dormancy-induction step. The frond colonies were incubated in this sugar solution for 21-30 days. Each 24-hour photoperiod was comprised of fluctuations in temperature and light levels. Specifically, the daytime hours consisted of culturing the duckweed frond colony at an aerial temperature of 10° C. with a light level of about 25 μM·M^−2·sec^−1 to about 50 μM·M^−2·sec^−1 for a duration of 3 hours, followed by an aerial temperature of 15° C. at a light level of about 25 μM·M^−2·sec^−1 to about 75 μM·M^−2·sec^−1 for a duration of 6 hours, and an aerial temperature of 10° C. with a light level of about 25 μM^−2·sec^−1 to about 50 μM·M^−2·sec^−1 for a duration of 3 hours. During the nighttime hours of the 24-hour photoperiod, the duckweed frond colonies were cultured at an aerial temperature of 4° C. in the absence of light for a duration of 12 hours.
(§2) The duckweed frond colonies were dehydrated in a laminar flow hood in 900 μL of a cryoprotective solution, comprising 1.92 M DMSO, […], 3.26 M glycerol, and 0.4 M sucrose at pH 5.8. The cryovials were incubated in this solution at 4° C. for 30 minutes to 2 hours in the absence of light. Following the incubation, the cryoprotective solution was removed and replaced with 900 μL of fresh cryoprotective solution.
(§3) The duckweed frond colonies were frozen in a slow rate freezer according to the following freezing protocol. The cryovials containing the duckweed frond colonies were held at 4° C. and the temperature was lowered to −4° C. at 1° C. per minute, to −40° C. at 25° C. per minute, and then raised to −12° C. at 10° C. per minute. The temperature was again lowered to −40° C. at 1° C. per minute, to −90° C. at 10° C. per minute, and then lowered to −150° C. at 10° C. per minute. Once frozen, the vials containing the frond colonies were transferred to the vapor phase of liquid nitrogen for storage.
(§4) After up to 17 months in storage, the frozen duckweed frond colonies were thawed and recovered as follows. The vials containing the frozen duckweed frond colonies were transferred from the liquid nitrogen storage tank to a laminar flow hood and were thawed at room temperature for approximately ten minutes. The cryoprotective solution was removed and replaced with 900 μL of Schenk and Hildebrandt medium, supplemented with 1.2 M sucrose, followed by a ten minute incubation at room temperature. The 1.2 M sucrose was subsequently diluted by a series of five dilutions whereby 450 μL of the 1.2 M sucrose solution was removed and replaced with 450 μL of Schenk and Hildebrandt medium supplemented with 20 mg/ml sucrose. Following the serial dilutions, the frond colonies were transferred to a petri dish with Schenk and Hildebrandt medium, supplemented with 10 mg/ml sucrose and 1% (weight/volume) agar. The duckweed frond colonies were cultured at an aerial temperature of between 21° C. and 30° C. with light levels ranging from about 20 μM·M^−2·sec^−1 to about 100 μM·M^−2·sec^−1 for 7-14 days prior to calculating the success rate of the cryopreservation procedure.
(§5) The cryopreservation success rate was calculated by the total number of visible daughter fronds (or daughter fronds with viable tissue) to survive the freezing process and successfully reproduce new daughter fronds as a percentage of the total number of visible daughter fronds that were frozen. […]

In a further experiment the test system is L. minor. The experiment is described as above. The class given is in vivo, Lemna minor. The protocol: as §1, §2, §3, §4, §5

With `OC[C@H]1O[C@@](CO)(O[C@H]2O[C@H](CO)[C@@H](O)[C@H](O)[C@H]2O)[C@@H](O)[C@@H]1O` [Sucrose, sucrose], the Cryopreservation success rate in the experiment with BAP01-B2-230 line (sugars at two concentrations: 90 mg/ml (1X) and 270 mg/ml (3X), listed as Sucrose 1X) is listed as 100% (16/16); with BAP01-B2-230 line (sugars at two concentrations: 90 mg/ml (1X) and 270 mg/ml (3X), listed as Sucrose 3X), 0% (0/12); with BAP01-B2-230 line (various concentrations of six sugar combination: total sugar 90 (1X), 216 (2.4X), 342 mg/ml (3.8X), or 20 mg/ml sucrose), 60.9% (14/23); with L. minor (dormancy induction 21-Day, fluctuating temperature and light) it was 93.75% (30/32); in the experiment with L. minor (first set of experiments, single sugars 90 mg/ml unless the label says 20 mg/ml, six sugar combo 15 mg/ml each) it was 36.8% (7/19); in the experiment with L. minor (second set of experiments, single sugars 90 mg/ml unless the label says 20 mg/ml, six sugar combo 15 mg/ml each) it was 91.7% (11/12). The “Cryopreservation success, in words” value with L. minor (summary of Tables 6 and 7) was “lower cryopreservation success rates”.

Source of the values: patent US20120190004A1, “METHODS AND COMPOSITIONS FOR THE CRYOPRESERVATION OF DUCKWEED” (Biolex Therapeutics, Inc., priority 2009, published 2012).
